Data: patent publication US8198405B2, “Stabilized alpha helical peptides and uses thereof” (Dana-Farber Cancer Institute, Inc., priority 2003, dated 2012)
Values belong to the molecule of their own block, whether it stands above or below them. Where a SMILES comes first, the peptide text is derived from it. [ ]: non-standard residue; d: D form. The star is where a group is joined. FITC = O=C1OC2(c3ccc(O)cc3Oc3cc(O)ccc32)c2ccc(NC(=S)*)cc21; Nle = CCCC[C@H](N)C(=O)O; βAla = NCCC(=O)O

Legend:
[1] = 10 mg/kg FITC-conjugated peptide
[2] = system: Jurkat T-cell leukemia cells; experiment: Confocal microscopy, intracellular localization; format: cell-based; conditions: fixed cells
Experimental: Confocal microscopy experiments were employed in order to determine the intracellular localization of SAHB3BIDA. Jurkat T-cell leukemia cells were incubated with FITC-labeled compounds as described above or with serum replacement at 4 hours followed by additional 16 hours incubation at 37° C., and after washing twice with PBS, were cytospun at 600 RPM for 5 minutes onto superfrost plus glass slides (Fisher). Cells were then fixed in 4% paraformaldehyde, washed with PBS, incubated with TO-PRO-3 iodide (100 nM) (Molecular Probes) to counterstain nuclei, treated with Vectashield mounting medium (Vector), and then imaged by confocal microscopy (BioRad 1024). For double labeling experiments, fixed cells were additionally incubated with primary antibody to TOM20, and rhodamine-conjugated secondary antibody prior to TOPRO-3 counterstaining. […] Treated Jurkats were washed twice and then resuspended in PBS and wet mount preparations analyzed with a BioRad 1024 (Beth Israel/Deaconess Center for Advanced Microscopy) or Zeiss LSM510 laser scanning confocal microscope (Children's Hospital Boston Imaging Core).

[3] = system: Jurkat T-cell leukemia cells; experiment: Cellular uptake of FITC-peptides by FACS
trypsin = target: T1, trypsin (Bos taurus, UniProt P00760); experiment: In vitro trypsin proteolysis (trypsin agarose); format: in vitro ADME; conditions: first order rate constant, triplicate
T1 sequence (P00760 24-246): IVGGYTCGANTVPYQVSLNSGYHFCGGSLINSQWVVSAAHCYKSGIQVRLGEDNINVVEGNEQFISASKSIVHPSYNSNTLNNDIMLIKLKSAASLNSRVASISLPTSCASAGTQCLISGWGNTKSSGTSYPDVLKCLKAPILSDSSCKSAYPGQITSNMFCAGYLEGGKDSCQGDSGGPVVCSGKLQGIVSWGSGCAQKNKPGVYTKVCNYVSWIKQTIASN
Experimental: The amide bond of the peptide backbone is susceptible to hydrolysis by proteases, thereby rendering peptidic compounds vulnerable to rapid degradation in vivo. Peptide helix formation, however, buries the amide backbone and therefore shields it from proteolytic cleavage. […] SAHB3BIDA and unmodified peptide were incubated with trypsin agarose and the reactions quenched at various time points by centrifugation and subsequent HPLC injection to quantitate the residual substrate by ultraviolet absorption at 280 nm. […] Reactions were quenched by tabletop centrifugation at high speed; remaining substrate in the isolated supernatant was quantified by HPLC-based peak detection at 220 nm.

GST-BCL-2 = target: T2, GST-BCL-2 (Homo sapiens, UniProt P10415); experiment: Fluorescence polarization competitive binding (displacement of FITC-BID BH3)
T2 construct: containing the plasmid encoding C-terminal deleted GST-BCL-2; made in house; host or cells: Escherichia coli BL21 (DE3)
T2 sequence (P10415 1-218 limits assumed): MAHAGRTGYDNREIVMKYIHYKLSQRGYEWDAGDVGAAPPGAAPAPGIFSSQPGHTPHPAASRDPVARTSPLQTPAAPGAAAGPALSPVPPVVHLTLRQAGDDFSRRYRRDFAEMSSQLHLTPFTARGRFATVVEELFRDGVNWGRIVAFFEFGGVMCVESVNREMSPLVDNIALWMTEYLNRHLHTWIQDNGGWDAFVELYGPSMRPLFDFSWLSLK

BCL-2 = target: T3, BCL-2 (Homo sapiens, UniProt P10415); experiment: Fluorescence polarization direct binding assay
T3 construct: containing the plasmid encoding C-terminal deleted GST-BCL-2; made in house; host or cells: Escherichia coli BL21 (DE3)
T3 sequence (P10415 1-218 limits assumed): as above

BAX = target: T4, BAX (Homo sapiens, UniProt Q07812); experiment: Fluorescence polarization direct binding assay; conditions: full-length BAX
T4 construct: Full-length BAX protein was prepared as previously described (Suzuki et al, Cell, 103:645); made in house
T4 sequence (Q07812 whole entry): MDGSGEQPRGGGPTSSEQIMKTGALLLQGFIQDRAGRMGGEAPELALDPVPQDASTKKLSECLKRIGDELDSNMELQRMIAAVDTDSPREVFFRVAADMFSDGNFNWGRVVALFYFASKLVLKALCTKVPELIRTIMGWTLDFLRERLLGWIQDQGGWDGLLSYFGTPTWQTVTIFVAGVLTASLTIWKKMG

BCL-XL = experiment: 15N/1H HSQC NMR of 15N-labeled BCL-XL; format: binding; conditions: 1:1 complex, 0.1 mM
Experimental: Briefly, Escherichia coli BL21 (DE3) containing the plasmid encoding C-terminal deleted BCL-XL were cultured in M9-minimal medium containing ^15NH4Cl (Cambridge Isotope Laboratories) to generate uniformly ^15N-labeled protein. Recombinant proteins were isolated from bacteria. […] Two dimensional ^15N/^1H heteronuclear single-quantum spectra were recorded for the two complexes and analyzed for changes in resonance upon ligand binding.

[4] = system: purified mouse liver mitochondria; experiment: Cytochrome c release assay (ELISA), wild-type mitochondria; format: biochemical
Experimental: (§1) In order to assess the biological activity of SAHB3BID compounds in vitro, cytochrome c release assays were performed using purified mouse liver mitochondria. Mitochondria (0.5 mg/mL) were incubated for 40 minutes with 1 μM and 100 nM of SAHB3BID compounds and then supernatants and mitochondrial fractions isolated and subjected to cytochrome c ELISA assay. Background cytochrome c release (10-15%) was subtracted from total release for each sample, and the percent actual cytochrome c release was determined (FIG. 12). […] In each case, except for the double cross-linked SAHB3BIDE (which may lack critical amino acids for biological activity or, in this case, be overly constrained by the dual cross-links), there is approximately a doubling of cytochrome c release in response to 1 μM SAHB3BID compounds compared to the unmodified peptide (FIG. 12a). […] BID mutants with defective BH3 domains can promote BAK-independent cytochrome c mobilization (Scorrano et al, Dev Cell, 2:55), and the highly hydrophobic BID helix 6 has been implicated in this activity (L. Scorrano, S. J. Korsmeyer, unpublished results).
Similar to the above experiment, mouse liver mitochondria from wild-type and Bak−/− mice were exposed to the compounds at various concentrations and assayed for cytochrome c release at 10 and 40 minute intervals. […] Thus, SAHB3BIDA and B display a 10-25 fold enhancement in cytochrome c release activity at the 40 minute time point.

[5] = system: mouse liver mitochondria isolated from Bak-/- mice; experiment: Cytochrome c release assay, Bak-/- mitochondria (BAK-independent release); format: biochemical; conditions: 1 μM, 40 minutes
Experimental: as §1
Similar to the above experiment, mouse liver mitochondria from wild-type and Bak−/− mice were exposed to the compounds at various concentrations and assayed for cytochrome c release at 10 and 40 minute intervals. […]

[6] = system: Jurkat cells engineered to overexpress BCL-2; experiment: Apoptosis by annexin V flow cytometry; format: cell-based
Experimental: Indeed, the pro-apoptotic effect of 10 uM SAHB3BIDA and B on “wild-type” Jurkats was abolished in the BCL-2 overexpressing cells. […] The observed pro-apoptotic effects are selectively abolished by gly to glu mutation of SAHB3BIDA and cellular overexpression of BCL-2, findings which underscore that SAHB3BID compounds function via the defined mitochondrial apoptosis pathway.

[7] = system: REH, MV4; 11, and SEMK2 cell lines; experiment: Apoptosis induction assays; format: cell-based
SEMK2-M1 leukemia cells = experiment: SEMK2 leukemia in vivo, total body luminescence

percent detectable in serum ([1]; one hour after injection): 12%
Molecule: CCCC[C@H](NC(=O)[C@H](CO)NC(=O)[C@H](CC(=O)O)NC(=O)CNC(=O)[C@@H](NC(=O)[C@H](CCC(N)=O)NC(=O)[C@H](C)NC(=O)[C@H](CC(C)C)NC(=O)[C@H](Cc1c[nH]cn1)NC(=O)[C@H](CCCNC(=N)N)NC(=O)[C@H](C)NC(=O)[C@@H](NC(=O)[C@H](CC(N)=O)NC(=O)[C@H](CCCNC(=N)N)NC(=O)[C@@H](NC(=O)[C@@H](NC(=O)[C@H](CC(=O)O)NC(=O)[C@@H](N)CCC(=O)O)[C@@H](C)CC)[C@@H](C)CC)[C@@H](C)CC)C(C)C)C(=O)N[C@@H](CC(=O)O)C(=O)N[C@@H](CCCNC(=N)N)C(=O)N[C@@H](CO)C(=O)N[C@H](C(=O)N[C@@H](Cc1c[nH]c2ccccc12)C(N)=O)[C@@H](C)CC [BID BH3, reference compound] (H-EDIIRNIARHLAQVGDS[Nle]DRSIW-NH2)

Molecule: CCCC[C@H](NC(=O)[C@H](CO)NC(=O)[C@H](CC(=O)O)NC(=O)CNC(=O)[C@@H](NC(=O)[C@H](CCC(N)=O)NC(=O)[C@H](C)NC(=O)[C@H](CC(C)C)NC(=O)[C@H](Cc1c[nH]cn1)NC(=O)[C@H](CCCNC(=N)N)NC(=O)[C@H](C)NC(=O)[C@@H](NC(=O)[C@H](CC(N)=O)NC(=O)[C@H](CCCNC(=N)N)NC(=O)[C@@H](NC(=O)[C@@H](NC(=O)[C@H](CC(=O)O)NC(=O)[C@H](CCC(=O)O)NC(=O)CCNC(=S)Nc1ccc2c(c1)C(=O)OC21c2ccc(O)cc2Oc2cc(O)ccc21)[C@@H](C)CC)[C@@H](C)CC)[C@@H](C)CC)C(C)C)C(=O)N[C@@H](CC(=O)O)C(=O)N[C@@H](CCCNC(=N)N)C(=O)N[C@@H](CO)C(=O)N[C@H](C(=O)N[C@@H](Cc1c[nH]c2ccccc12)C(N)=O)[C@@H](C)CC [FITC-BID BH3] ({FITC-βAla}-EDIIRNIARHLAQVGDS[Nle]DRSIW-NH2)
intracellular distribution of fluorescence [2]: no cellular labeling
FITC labeling of cells at 4° C. and 37° C. [3]: did not label the cells at either temperature
FITC labeling with or without sodium azide and 2-deoxyglucose [3]: no labeling for either condition

enhancement in trypsin resistance compared to the unmodified peptide (trypsin): 3.5 fold
increase in displacement potency compared to unmodified BID BH3 peptide (GST-BCL-2): more than 13 fold
GST-BCL2 binding, in words (GST-BCL-2; competition with FITC-labeled unmodified BID BH3): highest affinity binding
IC50 (GST-BCL-2; read-out: IC50 for displacement of prebound FITC-BID BH3 from BCL-2): 62 nM
enhancement in BCL-2 binding affinity compared to unmodified BID BH3 peptide (BCL-2): 6 fold
Kd (BCL-2; fluorescinated compounds 25 nM, GST-BCL2 25 nM-1000 nM (FIG. 11d)): 38.8 nM
BAX binding, in words (BAX): measurable binding
EC50 ([4]; 40 minutes): 310 nM
percent of the input still measurable in serum ([1]; 22 hours post-injection): 13%
IC50 (Jurkat): 2200 nM
IC50 (REH): 10200 nM
IC50 (MV4;11): 4700 nM
IC50 (SEMK2): 1600 nM
IC50 (RS4;11): 2700 nM
Molecule: CCCC[C@H](NC(=O)[C@]1(C)CCCC=CCCC[C@](C)(NC(=O)[C@H](C)NC(=O)[C@H](CC(C)C)NC(=O)[C@H](Cc2c[nH]cn2)NC(=O)[C@H](CCCNC(=N)N)NC(=O)[C@H](C)NC(=O)[C@@H](NC(=O)[C@H](CC(N)=O)NC(=O)[C@H](CCCNC(=N)N)NC(=O)[C@@H](NC(=O)[C@@H](NC(=O)[C@H](CC(=O)O)NC(=O)[C@H](CCC(=O)O)NC(C)=O)[C@@H](C)CC)[C@@H](C)CC)[C@@H](C)CC)C(=O)N[C@@H](C(C)C)C(=O)NCC(=O)N[C@@H](CC(=O)O)C(=O)N1)C(=O)N[C@@H](CC(=O)O)C(=O)N[C@@H](CCCNC(=N)N)C(=O)N[C@@H](CO)C(=O)N[C@H](C(=O)N[C@@H](Cc1c[nH]c2ccccc12)C(N)=O)[C@@H](C)CC [SAHB3BIDA]
BCL-XL binding site, in words (BCL-XL): binds to the defined hydrophobic pocket of BCL-XL
cytochrome c release at ten-fold lower dosing, in words ([4]; 100 nM, 40 minutes): retain selective BAK-dependent cytochrome c release activity
cytochrome c release at 10 minutes, in words ([4]; 10 minutes): significant cytochrome c release
BAK-independent cytochrome c release, in words [5]: BAK-independent cytochrome c release is observed
pro-apoptotic effect in BCL-2 overexpressing cells ([6]; 10 uM): abolished
overcoming BCL-2 protection by dose escalation ([6]; dose response (FIG. 24)): can be overcome by dose escalation
apoptosis induction, in words [7]: specific apoptosis induction
tumor burden (total body luminescence) (SEMK2-M1 leukemia cells; 10 mg/kg intravenously on days 1, 2, 3, 5, 6, measured days 4 and 7): leukemic suppression
tumor burden (total body luminescence) (SEMK2-M1 leukemia cells; 10 mg/kg or 5 mg/kg intravenously on days 1, 2, 3, 6, 7, measured days 4 and 8): dose-dependent manner

B1: myristolated BID protein: maximally activated myristolated BID protein (protein, UniProt P55957 1-195, looked up)
BH3-interacting domain death …: MDCEVNNGSSLRDECITNLLVFGFLQSCSDNSFRRELDALGHELPVLAPQWEGYDELQTDGNRSSHSRLGRIEADSESQEDIIRNIARHLAQVGDSMDRSIPPGLVNGLALQLRNTSRSEEDRNRDLATALEQLLQAYPRDMEKEKTMLVLALLLAKKVASHTPSLLRDVFHTTVNFINQNLRTYVRSLARNGMD
modifications: myristoylated
cytochrome c released ([4]; 30 nM): approximately 65%
